The values below come from PubChem BioAssay AID1745844 (Carcinogenic Potency Database (CPDB), 2022).

“And” between values parts separate entries of the source, which are not always exact repeats. Equal values may be shown once. The source made the active and inactive calls. No rule for the calls is given here.

The data set has as its system rodent lifetime carcinogenesis bioassay, tumor incidence TD50. Nature of the data set: chronic cancer bioassays in animals – CPDB, compiled studies (AID 1745844).

A word on the TD50: it is the dose at which the toxic effect under study appears in half of the subjects. Regarding `O=[As]O`, the carcinogen call is, setting by setting: (mouse, strain Charles River CD1, both sexes, in drinking water, site: any site (literature study), lesion: benign tumor, dosed 104 weeks, study length 104 weeks) “negative (inactive)”; (mouse, strain Charles River CD1, both sexes, in drinking water, site: any site (literature study), lesion: malignant tumor, dosed 104 weeks, study length 104 weeks) “negative (inactive)”; (mouse, strain Charles River CD1, both sexes, in drinking water, site: any site (literature study), lesion: several types, types named in the paper, dosed 104 weeks, study length 104 weeks) “negative (inactive)”; (mouse, strain Charles River CD1, both sexes, in drinking water, site: liver, lesion: several types, types named in the paper, dosed 104 weeks, study length 104 weeks) “negative (inactive)”; (mouse, strain Charles River CD1, both sexes, in drinking water, site: lung, lesion: several types, types named in the paper, dosed 104 weeks, study length 104 weeks) “negative (inactive)”; (rat, strain Long-Evans BLU:(LE), both sexes, in drinking water, site: any site (literature study), lesion: malignant tumor, dosed 167 weeks, study length 167 weeks) “negative (inactive)”. Besides, the carcinogen call (rat, strain Long-Evans BLU:(LE), both sexes, in drinking water, site: any site (literature study), lesion: one or several types, types not named, dosed 167 weeks, study length 167 weeks) is “negative (inactive)” and the carcinogen call (rat, strain Osborne-Mendel, both sexes, in feed, site: any site (literature study), lesion: several types, types named in the paper, dosed 104 weeks, study length 104 weeks) is “negative (inactive)”. Moreover, the TD50 is, setting by setting: (rat, strain Long-Evans BLU:(LE), both sexes, in drinking water, site: liver, lesion: one or several types, types not named, dosed 167 weeks, study length 167 weeks) 10.6 mg/kg/day (inactive); (rat, strain Osborne-Mendel, both sexes, in feed, site: any site (literature study), lesion: malignant tumor, dosed 104 weeks, study length 104 weeks) 626 mg/kg/day (inactive).

On to `[N-]=[N+]=O`, for which the carcinogen call is “negative (inactive)” (mouse, strain Swiss Webster, females, inhaled, site: liver, lesion: one or several types, types not named, dosed 78 weeks, study length 83 weeks); “negative (inactive)” (mouse, strain Swiss Webster, females, inhaled, site: several sites, sites named in the paper, lesion: one or several types, types not named, dosed 78 weeks, study length 83 weeks); “negative (inactive)” (mouse, strain Swiss Webster, males, inhaled, site: liver, lesion: one or several types, types not named, dosed 78 weeks, study length 83 weeks); “negative (inactive)” (mouse, strain Swiss Webster, males, inhaled, site: lung, lesion: adenoma, dosed 78 weeks, study length 83 weeks); “negative (inactive)” (mouse, strain Swiss Webster, males, inhaled, site: several sites, sites named in the paper, lesion: one or several types, types not named, dosed 78 weeks, study length 83 weeks). Further, the TD50 (mouse, strain Swiss Webster, females, inhaled, site: lung, lesion: adenoma, dosed 78 weeks, study length 83 weeks) was 309000 mg/kg/day (inactive).

Take `Cc1csc(NNC=O)n1`: the TD50 by setting is: (rat, strain Sprague-Dawley, females, in feed, site: any site (literature study), lesion: several types, types named in the paper, dosed 46 weeks, study length 64 weeks) 14.4 mg/kg/day; (rat, strain Sprague-Dawley, females, in feed, site: mammary gland, lesion: adenofibroma, dosed 46 weeks, study length 64 weeks) 14.4 mg/kg/day.

Regarding `O=C(NCC1CCCCN1)c1cc(OCC(F)(F)F)ccc1OCC(F)(F)F` (centres undefined), the carcinogen call by setting is: (mouse, strain Charles River CD1, females, in feed, site: liver, lesion: adenoma, dosed 78 weeks, study length 78 weeks) “negative (inactive)”; (mouse, strain Charles River CD1, males, in feed, site: liver, lesion: adenoma, dosed 78 weeks, study length 78 weeks) “negative (inactive)”; (mouse, strain Charles River CD1, males, in feed, site: liver, lesion: hepatocellular carcinoma, dosed 78 weeks, study length 78 weeks) “negative (inactive)”; (mouse, strain Charles River CD1, males, in feed, site: lung, lesion: adenoma, dosed 78 weeks, study length 78 weeks) “negative (inactive)”; (rat, strain Charles River Crl:COBS(WI)BR, females, in feed, site: liver, lesion: adenoma, dosed 104 weeks, study length 104 weeks) “negative (inactive)”. Moreover, the TD50 is, setting by setting: (mouse, strain Charles River CD1, females, in feed, site: lung, lesion: adenoma, dosed 78 weeks, study length 78 weeks) 938 mg/kg/day (inactive); (rat, strain Charles River Crl:COBS(WI)BR, males, in feed, site: liver, lesion: adenoma, dosed 104 weeks, study length 104 weeks) 3580 mg/kg/day (inactive); (rat, strain Charles River Crl:COBS(WI)BR, males, in feed, site: testis, lesion: interstitial-cell adenoma, dosed 104 weeks, study length 104 weeks) 79.1 mg/kg/day (inactive).

Compound `Cc1c(COC(=O)[C@@H]2[C@H](/C=C(\Cl)C(F)(F)F)C2(C)C)cccc1-c1ccccc1` came in with a TD50 (mouse, strain Swiss Webster, males, in feed, site: urinary bladder, lesion: mesenchymal neoplasm, dosed 86 weeks, study length 86 weeks) of 286 mg/kg/day.

For the compound `COc1cc(/C=C/C(=O)OCCc2ccccc2)ccc1O`, under “rat, strain Fischer 344, males, in feed, site: colon, lesion: one or several types, types not named, dosed 55 weeks, study length 55 weeks”, the carcinogen call was “negative (inactive)”.

Turning to `COP(=S)(OC)Oc1ccc([N+](=O)[O-])cc1`, the carcinogen call (mouse, strain B6C3F1, females, in feed, site: any site (literature study), lesion: several types, types named in the paper, dosed 102 weeks, study length 102 weeks) was “negative (inactive)”; the carcinogen call (mouse, strain B6C3F1, males, in feed, site: any site (literature study), lesion: several types, types named in the paper, dosed 102 weeks, study length 102 weeks) is “negative (inactive)”; the carcinogen call (rat, strain Fischer 344, females, in feed, site: any site (literature study), lesion: several types, types named in the paper, dosed 105 weeks, study length 105 weeks) is “negative (inactive)”; the carcinogen call (rat, strain Fischer 344, males, in feed, site: any site (literature study), lesion: several types, types named in the paper, dosed 105 weeks, study length 105 weeks) is “negative (inactive)”. The TD50 reads like this: (mouse, strain B6C3F1, females, in feed, site: lung, lesion: alveolar/bronchiolar adenoma + alveolar/bronchiolar carcinoma, dosed 102 weeks, study length 102 weeks) 125 mg/kg/day; (mouse, strain B6C3F1, males, in feed, site: lung, lesion: alveolar/bronchiolar adenoma + alveolar/bronchiolar carcinoma, dosed 102 weeks, study length 102 weeks) 58.1 mg/kg/day.

Regarding `Cc1cc(Cl)ccc1N`, the TD50 was 40 mg/kg/day (mouse, strain B6C3F1, females, in feed, site: all sites, lesion: hemangioma + hemangiosarcoma, dosed 95 weeks, study length 99 weeks); 42.3 mg/kg/day (mouse, strain B6C3F1, females, in feed, site: all sites, lesion: hemangiosarcoma, dosed 95 weeks, study length 99 weeks); 38.8 mg/kg/day (mouse, strain B6C3F1, females, in feed, site: any site (literature study), lesion: several types, types named in the paper, dosed 95 weeks, study length 99 weeks); 754 mg/kg/day (mouse, strain B6C3F1, females, in feed, site: liver, lesion: hepatocellular adenoma + hepatocellular carcinoma + neoplastic nodule, dosed 95 weeks, study length 99 weeks); 798 mg/kg/day (mouse, strain B6C3F1, females, in feed, site: lung, lesion: alveolar/bronchiolar adenoma + alveolar/bronchiolar carcinoma, dosed 95 weeks, study length 99 weeks); 743 mg/kg/day (mouse, strain B6C3F1, males, in feed, site: all sites, lesion: hemangioma + hemangiosarcoma, dosed 99 weeks, study length 99 weeks). The TD50 (mouse, strain B6C3F1, males, in feed, site: all sites, lesion: hemangiosarcoma, dosed 99 weeks, study length 99 weeks) is 911 mg/kg/day; the TD50 (mouse, strain B6C3F1, males, in feed, site: any site (literature study), lesion: several types, types named in the paper, dosed 99 weeks, study length 99 weeks) turned out to be 537 mg/kg/day; the TD50 (mouse, strain B6C3F1, males, in feed, site: liver, lesion: hepatocellular adenoma + hepatocellular carcinoma + neoplastic nodule, dosed 99 weeks, study length 99 weeks) was determined as 3260 mg/kg/day; the TD50 (mouse, strain CD-1 HaM/ICR, females, in feed, site: all sites, lesion: all vascular tumors, dosed 51 weeks, study length 60 weeks) was 15.7 mg/kg/day and 18.4 mg/kg/day; the TD50 (mouse, strain CD-1 HaM/ICR, females, in feed, site: any site (literature study), lesion: several types, types named in the paper, dosed 51 weeks, study length 60 weeks) was 15.6 mg/kg/day; the TD50 (mouse, strain CD-1 HaM/ICR, females, in feed, site: liver, lesion: several types, types named in the paper, dosed 51 weeks, study length 60 weeks) is 139 mg/kg/day (inactive). In addition, the TD50 was 153 mg/kg/day (inactive) (mouse, strain CD-1 HaM/ICR, females, in feed, site: lung, lesion: several types, types named in the paper, dosed 51 weeks, study length 60 weeks); 15.4 mg/kg/day (mouse, strain CD-1 HaM/ICR, males, in feed, site: all sites, lesion: all vascular tumors, dosed 55 weeks, study length 60 weeks); 7.72 mg/kg/day (mouse, strain CD-1 HaM/ICR, males, in feed, site: any site (literature study), lesion: several types, types named in the paper, dosed 55 weeks, study length 60 weeks); 95.7 mg/kg/day (inactive) (mouse, strain CD-1 HaM/ICR, males, in feed, site: liver, lesion: several types, types named in the paper, dosed 55 weeks, study length 60 weeks); 8.85 mg/kg/day (inactive) (mouse, strain CD-1 HaM/ICR, males, in feed, site: lung, lesion: several types, types named in the paper, dosed 55 weeks, study length 60 weeks); 24.9 mg/kg/day (inactive) (rat, strain Charles River CD (Sprague-Dawley), males, in feed, site: any site (literature study), lesion: several types, types named in the paper, dosed 77 weeks, study length 98 weeks). Also, the TD50 runs as follows: (rat, strain Charles River CD (Sprague-Dawley), males, in feed, site: liver, lesion: several types, types named in the paper, dosed 77 weeks, study length 98 weeks) 123 mg/kg/day (inactive); (rat, strain Fischer 344, males, in feed, site: liver, lesion: hepatocellular adenoma + hepatocellular carcinoma + neoplastic nodule, dosed 107 weeks, study length 107 weeks) 6180 mg/kg/day; (rat, strain Fischer 344, males, in feed, site: pituitary gland, lesion: chromophobe adenoma, dosed 107 weeks, study length 107 weeks) 576 mg/kg/day (inactive). For the same compound, where the note is “rat, strain Fischer 344, females, in feed, site: any site (literature study), lesion: several types, types named in the paper, dosed 107 weeks, study length 107 weeks”, the carcinogen call is “negative (inactive)”.

`O=S1OCCO1` showed a TD50 (mouse, strain Ha/ICR, females, i.p., site: lung, lesion: papillary tumor, dosed 64 weeks, study length 64 weeks) of 1.03 mg/kg/day.

On to `O=NN1CCN(N=O)CC1`, for which the TD50 is 4.66 mg/kg/day (mouse, strain C17, females, by gavage, site: forestomach, lesion: squamous-cell carcinoma, dosed 40 weeks, study length 104 weeks); 4.13 mg/kg/day (mouse, strain C17, females, by gavage, site: uterus, lesion: reticulum-cell neoplasm, type A, dosed 40 weeks, study length 104 weeks); 2.01 mg/kg/day (mouse, strain C17, males, by gavage, site: forestomach, lesion: squamous-cell carcinoma, dosed 40 weeks, study length 104 weeks); 8.24 mg/kg/day (mouse, strain Swiss, males, in drinking water, site: any site (literature study), lesion: several types, types named in the paper, dosed 52 weeks, study length 100 weeks); 51.9 mg/kg/day (mouse, strain Swiss, males, in drinking water, site: liver, lesion: hepatocellular carcinoma, dosed 52 weeks, study length 100 weeks); 8.7 mg/kg/day (mouse, strain Swiss, males, in drinking water, site: lung, lesion: adenoma, dosed 52 weeks, study length 100 weeks). Further, the carcinogen call (mouse, strain Swiss, females, in drinking water, site: any site (literature study), lesion: several types, types named in the paper, dosed 52 weeks, study length 100 weeks) is “positive”.
